From the NIST ThermoML archive (doi:10.1016/j.jct.2015.06.036)

Assay: xn = mol fraction of the nth substance listed
Conditions: 101 kPa, Liquid; for viscosity: Falling or rolling sphere viscometry; for speed of sound: Sing-around technique in a fixed-path interferometer; for mass density: Vibrating tube method

CCn1cc[n+](C)c1.F[B-](F)(F)F [1-ethyl-3-methylimidazolium tetrafluoroborate] + CO
Conditions | mass density [kg/m3] | speed of sound [m/s] | viscosity [mPa·s]
278.15 K, x1 = 0.0499 | 896.8 | 1233 | 0.998
278.15 K, x1 = 0.0998 | 965.1 | 1283 | 1.43
278.15 K, x1 = 0.1498 | 1019.5 | 1336 | 1.92
278.15 K, x1 = 0.1998 | 1062.4 | 1384 | 2.52
278.15 K, x1 = 0.3002 | 1127.9 | 1465 | 4.08
278.15 K, x1 = 0.4004 | 1174.8 | 1523 | 6.45
278.15 K, x1 = 0.5001 | 1209.6 | 1565 | 9.84
278.15 K, x1 = 0.6004 | 1237.2 | 1597 | 15.3
278.15 K, x1 = 0.6987 | 1258.7 | 1623 | 24.6
278.15 K, x1 = 0.8005 | 1277.4 | 1644 | 38.9
278.15 K, x1 = 0.8486 | 1284.8 | 1653 | 47.9
278.15 K, x1 = 0.8987 | 1292.3 | 1661 | 61.5
278.15 K, x1 = 0.9476 | 1298.6 | 1669 | 76.5
278.15 K, x1 = 1 | 1305.3 | 1677 | 101
288.15 K, x1 = 0.0499 | 887.8 | 1204 | 0.848
288.15 K, x1 = 0.0998 | 956.3 | 1259 | 1.19
288.15 K, x1 = 0.1498 | 1010.9 | 1313 | 1.57
288.15 K, x1 = 0.1998 | 1053.8 | 1361 | 2.03
288.15 K, x1 = 0.3002 | 1119.4 | 1441 | 3.24
288.15 K, x1 = 0.4004 | 1166.5 | 1499 | 5.01
288.15 K, x1 = 0.5001 | 1201.4 | 1540 | 7.49
288.15 K, x1 = 0.6004 | 1229.1 | 1572 | 11.3
288.15 K, x1 = 0.6987 | 1250.7 | 1598 | 17.7
288.15 K, x1 = 0.8005 | 1269.5 | 1619 | 26.8
288.15 K, x1 = 0.8486 | 1276.9 | 1628 | 32.3
288.15 K, x1 = 0.8987 | 1284.5 | 1636 | 40.2
288.15 K, x1 = 0.9476 | 1290.9 | 1644 | 48.7
288.15 K, x1 = 1 | 1297.6 | 1653 | 62
298.15 K, x1 = 0.0499 | 878.7 | 1176 | 0.732
298.15 K, x1 = 0.0998 | 947.5 | 1233 | 1.01
298.15 K, x1 = 0.1498 | 1002.2 | 1289 | 1.32
298.15 K, x1 = 0.1998 | 1045.3 | 1337 | 1.69
298.15 K, x1 = 0.3002 | 1111 | 1418 | 2.66
298.15 K, x1 = 0.4004 | 1158.2 | 1475 | 4.03
298.15 K, x1 = 0.5001 | 1193.3 | 1516 | 5.91
298.15 K, x1 = 0.6004 | 1221.1 | 1548 | 8.69
298.15 K, x1 = 0.6987 | 1242.8 | 1575 | 13.3
298.15 K, x1 = 0.8005 | 1261.7 | 1596 | 19.5
298.15 K, x1 = 0.8486 | 1269.2 | 1605 | 22.9
298.15 K, x1 = 0.8987 | 1276.8 | 1613 | 28
298.15 K, x1 = 0.9476 | 1283.2 | 1621 | 33.2
298.15 K, x1 = 1 | 1290 | 1629 | 41
308.15 K, x1 = 0.0499 | 869.6 | 1147 | 0.642
308.15 K, x1 = 0.0998 | 938.7 | 1208 | 0.872
308.15 K, x1 = 0.1498 | 993.6 | 1265 | 1.13
308.15 K, x1 = 0.1998 | 1036.8 | 1314 | 1.44
308.15 K, x1 = 0.3002 | 1102.7 | 1394 | 2.23
308.15 K, x1 = 0.4004 | 1150 | 1451 | 3.33
308.15 K, x1 = 0.5001 | 1185.3 | 1493 | 4.79
308.15 K, x1 = 0.6004 | 1213.2 | 1525 | 6.91
308.15 K, x1 = 0.6987 | 1235 | 1551 | 10.4
308.15 K, x1 = 0.8005 | 1254 | 1573 | 14.9
308.15 K, x1 = 0.8486 | 1261.5 | 1581 | 17.1
308.15 K, x1 = 0.8987 | 1269.1 | 1589 | 20.5
308.15 K, x1 = 0.9476 | 1275.6 | 1598 | 23.8
308.15 K, x1 = 1 | 1282.4 | 1606 | 28.8
318.15 K, x1 = 0.0499 | 860.5 | 1119 | 0.57
318.15 K, x1 = 0.0998 | 929.8 | 1182 | 0.772
318.15 K, x1 = 0.1498 | 984.9 | 1241 | 0.979
318.15 K, x1 = 0.1998 | 1028.3 | 1290 | 1.24
318.15 K, x1 = 0.3002 | 1094.4 | 1371 | 1.9
318.15 K, x1 = 0.4004 | 1141.9 | 1428 | 2.81
318.15 K, x1 = 0.5001 | 1177.3 | 1470 | 3.98
318.15 K, x1 = 0.6004 | 1205.4 | 1502 | 5.65
318.15 K, x1 = 0.6987 | 1227.2 | 1528 | 8.37
318.15 K, x1 = 0.8005 | 1246.3 | 1550 | 11.7
318.15 K, x1 = 0.8486 | 1253.9 | 1559 | 13.2
318.15 K, x1 = 0.8987 | 1261.6 | 1567 | 15.7
318.15 K, x1 = 0.9476 | 1268 | 1575 | 17.8
318.15 K, x1 = 1 | 1274.9 | 1583 | 21.2
